The text below walks through data of US20230031406A1, “COMPOUNDS AND COMPOSITIONS FOR TREATING CONDITIONS ASSOCIATED WITH NLRP ACTIVITY” (Novartis AG, priority 2018, published 2023).

Read-outs that look alike come from different tables or passages of the source.

The test relates to PMA-differentiated THP-1 cells. The experiment in a line: IL-1β production in PMA-differentiated THP-1 cells stimulated with gramicidin (hTHP-1 assay containing 2% fetal bovine serum; Procedures 1 and 2). The note with it: 2% fetal bovine serum. The test is classed as cell-based, human. In a few lines: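 Secreted IL-1β, read by HTRF, after gramicidin challenge (5 μM, 2 h) of THP-1 cells differentiated with PMA (20 ng/ml, 16-18 h) and plated at 50,000 cells/well in 2% FBS medium. Compounds, 0.0017-100 μM final with 0.37% DMSO, were added 1 h before stimulation.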

Where [1] appears, read: Table B2, class symbols, read-out: hTHP-1 IC50.
[2] abbreviates: Table B1, class symbols, read-out: Average IC50 of compounds in hTHP-1 assay: hTHP-1 IC50.
Where [3] appears, read: Homo sapiens, THP-1, Table B2, numeric bounds, read-out: hTHP-1 IC50.
The mark [4] stands for this setting: Homo sapiens, THP-1, Table B2, class symbols, read-out: hTHP-1 IC50.
Setting [5] is: Homo sapiens, THP-1, Table B1, class symbols, read-out: Average IC50 of compounds in hTHP-1 assay: hTHP-1 IC50.
The mark [6] stands for this setting: Homo sapiens, THP-1, Table B3, hTHP-1 assay, numeric values, read-out: IC50.

As to `Cc1c(C2CC2)nc2c(c1NC(=O)N=S(N)(=O)c1cc(C(C)(C)O)cs1)CCC2C` (single isomer, unassigned) [Compound 656c, (S, R) or (S, S) or (R, S) or (R, R)-N′-((2-Cyclopropyl-3,7-dimethyl-6,7-dihydro-5H-cyclopenta[b]pyridin-4-yl)carbamoyl)-4-(2-hydroxypropan-2-yl)thiophene-2-sulfonimidamide], the IC50 under setting [1] was 5 to 30 µM.

In the case of `Cc1c(C2CC2)nc2c(c1NC(=O)N=S(N)(=O)c1sc(C(C)(C)O)cc1F)CCC2` (single isomer, unassigned) [Compound 174a, (R) or (S)-N′-((2-cyclopropyl-3-methyl-6,7-dihydro-5H-cyclopenta[b]pyridin-4-yl)carbamoyl)-3-fluoro-5-(2-hydroxypropan-2-yl)thio-phene-2-sulfonimidamide], under setting [2], the IC50 was in the range of 5 to 30 µM.

As for `NS(=O)(=NC(=O)Nc1c2c(nc3c1CCC31CC1)CCC2)c1cnn(C(F)F)c1` (single isomer, unassigned) [Compound 638b, (S) or (R)-1-(Difluoromethyl)-N′-((1′,5′,6′,7′-tetrahydro-2′H-spiro[cyclopropane-1,3′-dicyclopenta[b,e]pyridin]-8′-yl)carbamoyl)-1H-pyrazole-4-sulfonimidamide], the half-maximal inhibitory concentration (IC50) under setting [3] is above 30 µM.

For `CNS(=O)(=O)c1cccc(S(N)(=O)=NC(=O)Nc2c3c(nc4c2CCC4(C)C)CCC3)c1` (centres unmarked) [Compound 735, 3-(N′-((3,3-dimethyl-1,2,3,5,6,7-hexahydrodicyclopenta [b,e]pyridin-8-yl)carbamoyl)sulfamidimidoyl)-N-methylbenzenesulfonamide], the IC50 under setting [4] was 1 to 5 µM.

Turning to `CCn1cc(F)c(S(N)(=O)=NC(=O)Nc2c3c(nc4c2CCC4)CCC3)n1` (centres unmarked) [Example 736, 1-Ethyl-4-fluoro-N′-((1,2,3,5,6,7-hexahydrodicyclopenta[b,e]pyridin-8-yl)carbamoyl)-1H-pyrazole-3-sulfonimidamide], the IC50 (Homo sapiens, THP-1, Table B4, class symbols, read-out: hTHP-1 IC50) lay within 0.2 to 1 µM.

`CC1CCc2c1nc1c(c2NC(=O)N=S(N)(=O)c2ncc(C(C)(C)O)s2)CCC1` (single isomer, unassigned) [Compound 140ab, (R,S) or (R,R)-5-(2-hydroxypropan-2-yl)-N′-((3-methyl-1,2,3,5,6,7-hexa-hydrodicyclo-penta[b,e]pyridin-8-yl)carbamoyl)thiazole-2-sulfonimidamide]: under setting [2], the IC50 is 1 to 5 µM.

For the compound `CC(C)(O)c1nc(CCO)c(S(N)(=O)=NC(=O)Nc2c3c(nc4c2CCC4)CCC3)s1` (centres unmarked) [Compound 118, N-((1,2,3,5,6,7-hexahydrodicyclopenta[b,e]pyridin-8-yl)carbamoyl)-4-(2-hydroxyethyl)-2-(2-hydroxypropan-2-yl)thiazole-5-sulfonimidamide], under setting [5], the IC50 fell in the range of 1 to 5 µM.

With `CC(C)c1cncc(C(C)C)c1NC(=O)N=S(N)(=O)c1cnc(C(C)(C)O)s1` (single isomer, unassigned) [Compound 160b, (S) or (R)-N′-((3,5-diisopropylpyridin-4-yl)carbamoyl)-2-(2-hydroxypropan-2-yl)thiazole-5-sulfonimidamide], under setting [5], the concentration for half-maximal inhibition (IC50) lay within 5 to 30 µM.

Take `CC(C)(O)c1ncc(S(N)(=O)=NC(=O)Nc2cc(-c3ccccc3)nc3c2CCC3)s1` (single isomer, unassigned) [Compound 142a, (R) or (S)-2-(2-hydroxy-propan-2-yl)-N′-((2-phenyl-6,7-dihydro-5H-cyclopenta[b]pyridin-4-yl)carbamoyl)thiazole-5-sulfonimidamide]: for the setting “Homo sapiens, THP-1, Table B1, numeric bounds, read-out: Average IC50 of compounds in hTHP-1 assay: hTHP-1 IC50”, the IC50 is above 30 µM.

For the compound `CCC1CCc2c1nc1c(c2NC(=O)N=S(N)(=O)c2ccn(C(F)F)n2)CCC1` (single isomer, unassigned) [Compound 668a, (S, S) or (S, R) or (R, S) or (R, R)-1-(Difluoromethyl)-N′-((3-ethyl-1,2,3,5,6,7-hexahydrodicyclopenta [b,e]pyridin-8-yl)carbamoyl)-1H-pyrazole-3-sulfonimidamide], under setting [3], the IC50 was above 30 µM.

Consider `Cc1c(C(F)(F)F)nc2c(c1NC(=O)N=S(N)(=O)c1cnn3c1OCCC3)CCC2` (single isomer, unassigned) [Example 658, (S) or (R)-N′-((3-methyl-2-(trifluoromethyl)-6,7-dihydro-5H-cyclopenta[b]pyridin-4-yl)carbamoyl)-6,7-dihydro-5H-pyrazolo[5,1-b][1,3] oxazine-3-sulfonimidamide], for which the IC50 under setting [6] was above 30 µM.

`C[C@@H]1CCc2c1nc1c(c2NC(=O)N=S(N)(=O)c2ccn(-c3ccccc3)n2)CCC1` (single isomer, unassigned) [Compound 700a, (S) or (R)-N′-(((R)-3-methyl-1,2,3,5,6,7-hexahydrodicyclopenta [b,e]pyridin-8-yl)carbamoyl)-1-phenyl-1H-pyrazole-3-sulfonimidamide]: under setting [3], the IC50 is above 30 µM.

As for `CC(O)c1nc(C(C)(C)O)sc1S(=N)(=O)NC(=O)Nc1c2c(nc3c1CCC3)CCC2` (single isomer, unassigned) [Compound 643a, (R, R/S) or (S, R/S)-N-((1,2,3,5,6,7-hexahydrodicyclopenta [b,e]pyridin-8-yl)carbamoyl)-4-(1-hydroxyethyl)-2-(2-hydroxypropan-2-yl) thiazole-5-sulfonimidamide], under setting [4], the IC50 lay in the range of 5 to 30 µM.

Regarding `CC(C)n1nc(S(N)(=O)=NC(=O)Nc2c3c(nc4c2CC[C@H]4C)CCC3)cc1CO` (single isomer, unassigned) [Example 644, (S) or (R)-5-(hydroxymethyl)-1-isopropyl-N′-(((R)-3-methyl-1,2,3,5,6,7-hexahydrodicyclopenta[b,e]pyridin-8-yl)carbamoyl)-1H-pyrazole-3-sulfonimidamide], under setting [6], the IC50 is above 30 µM.

`CCn1cc(F)c(S(N)(=O)=NC(=O)Nc2c(-c3ccccc3)cnc3c2CCC3)n1` (single isomer, unassigned) [Example 793, (R) or (S)-1-ethyl-4-fluoro-N′-((3-phenyl-6,7-dihydro-5H-cyclopenta[b]pyridin-4-yl)carbamoyl)-1H-pyrazole-3-sulfonimidamide]: under “Table B4, class symbols, read-out: hTHP-1 IC50”, the IC50 lay in the range of 0.2 to 1 µM.

Take `C[C@@H]1CCc2c1nc1c(c2NC(=O)N=S(N)(=O)c2ccn(-c3ccccc3)n2)CCC1` (single isomer, unassigned) [Compound 700b, (R) or (S)-N′-(((R)-3-methyl-1,2,3,5,6,7-hexahydrodicyclopenta [b,e]pyridin-8-yl)carbamoyl)-1-phenyl-1H-pyrazole-3-sulfonimidamide]: the IC50 under setting [4] lay in the range of 0.2 to 1 µM.

With `CC(C)(O)c1csc(S(N)(=O)=NC(=O)Nc2cc(CC(F)(F)F)nc3c2CCC3)c1` (centres unmarked) [Compound 607, 4-(2-Hydroxypropan-2-yl)-N′-((2-(2,2,2-trifluoroethyl)-6,7-dihydro-5H-cyclopenta[b]pyridin-4-yl)carbamoyl)thiophene-2-sulfonimidamide], under setting [4], the IC50 lay in the range of 1 to 5 µM.

Consider `CC1CCc2c1nc1c(c2NC(=O)N=S(N)(=O)c2ccn(C(F)F)n2)CCC1` (single isomer, unassigned) [Compound 184d, (S,R) or (S,S)-1-(difluoro-methyl)-N′-((3-methyl-1,2,3,5,6,7-hexahydro-dicyclopenta[b,e]pyridin-8-yl)carbamoyl)-1H-pyrazole-3-sulfonimidamide], for which the IC50 under setting [2] was in the range of 1 to 5 µM.

As for `CC(C)(O)c1ncc(S(N)(=O)=NC(=O)Nc2c3c(nc4c2CCC42CC2)CCC3)s1` (single isomer, unassigned) [Compound 136a, (S) or (R)-2-(2-hydroxy-propan-2-yl)-N′-((1′,5′,6′,7′-tetrahydro-2′H-spiro[cyclopropane-1,3′-dicyclopenta[b,e]pyridin]-8′-yl)carbamoyl)thiazole-5-sulfonimidamide], the IC50 under setting [2] lay in the range of 1 to 5 µM.

Take `CC1CCc2c1nc1c(c2NC(=O)N=S(N)(=O)c2ccn(C(C)C)n2)CCC1` (single isomer, unassigned) [Compound 129aa, (R,R) or (R,S)-1-isopropyl-N′-((3-methyl-1,2,3,5,6,7-hexa-hydrodicyclo-penta[b,e]pyridin-8-yl)carbamoyl)-1H-pyrazole-3-sulfonimidamide]: the IC50 under setting [2] fell in the range of 0.04 to 0.2 µM.

For `CCc1c(C(F)(F)F)nc2c(c1NC(=O)N=S(N)(=O)c1cnc(C(C)(C)O)s1)CCC2` (single isomer, unassigned) [Compound 610a, (R) or (S)-N′-((3-ethyl-2-(trifluoromethyl)-6,7-dihydro-5H-cyclopenta[b]pyridin-4-yl)carbamoyl)-2-(2-hydroxypropan-2-yl)thiazole-5-sulfonimidamide], under setting [1], the IC50 was 1 to 5 µM.

Take `CC1CCc2c1nc1c(c2NC(=O)N=S(N)(=O)c2ncc(C(C)(C)O)s2)CCC1` (single isomer, unassigned) [Compound 140ba, (S,S) or (S,R)-5-(2-hydroxypropan-2-yl)-N′-((3-methyl-1,2,3,5,6,7-hexa-hydrodicyclo-penta[b,e]pyridin-8-yl)carbamoyl)thiazole-2-sulfonimidamide]: under setting [2], the IC50 fell in the range of 5 to 30 µM.

In the case of `C[C@@H]1CCc2c1nc1c(c2NC(=O)N=[S@@](N)(=O)c2cnc(C(C)(C)O)s2)CCC1` [Compound 162bb, (R,R)-2-(2-hydroxypropan-2-yl)-N′-((3-methyl-1,2,3,5,6,7-hexahydrodicyclo-penta[b,e]pyridin-8-yl)carbamoyl)thiazole-5-sulfonimidamide], the IC50 under setting [5] fell in the range of 0.04 to 0.2 µM.

One may read the IC50 as the concentration that gives 50% inhibition.
